Assay results taken from patent US10342806B2, “Hormone treatment for age-related hearing loss-presbycusis” (priority 2014, dated 2019).

Key:
[1] = test system: mineralocorticoid receptors (MCR); assay: MCR expression in spiral ganglion neurons (western blot, immunohistochemistry); type: in vivo, mouse; details: middle-aged mice, ALD treatment vs young adult and middle age controls
Description: Death was confirmed by terminal phlebotomy/exsanguinations and perfusion.
After sacrifice, a cochlear modiolus (CM) was dissected from the temporal bone, & pooled together for measuring NKCC1 protein and mRNA expression. The other CM was prepared for immunohistochemistry as described below. Data was analyzed using one-way ANOVA, and two-way repeated measures ANOVA through GraphPad Prism 5.0 with protein level measurements (Δ Intensity=Background tissue intensity−experimental area intensity) (GraphPad Software, La Jolla, Calif.).
For Western blot and RT-PCR, cells were placed in RIPA buffer and sonicated. Protein concentration was measured using the Bradford method. Proteins were separated by SDS-PAGE. […]
For immunohistochemistry, mice were sacrificed, and one of the cochleae dissected, fixed in 4% paraformaldehyde in PBS overnight at 4° C., decalcification in 10% EDTA in PBS for a week at 4° C., and incubated in cryoprotection solution overnight at 4° C. […] The spiral ganglion neurons were counted by Metamorph imaging software (Molecular Devices, Center Valley, Pa. 18034-0610) and data analyzed by GraphPad Prism (GraphPad Software, Inc. La Jolla, Calif.).
Levels of staining for MCR presence in young adult and middle-aged mice was determined by densitometry analysis (MetaMorph Image Analysis System) of immunocytochemistry sections.

[2] = test system: NKCC1 ubiquitination; assay: Immunoprecipitation (autoubiquitination assay) of NKCC1 in HT-29 cells; type: cell-based, human; details: MG132 20 μM 2 h, then ALD 1 μM and/or GSK 650394 50 μM for 24 h
Description: Immunoprecipitation (autoubiquitination assay) and western blot analysis. An autoubiquitination assay was followed (Garg, et al., Effect of the Na—K-2Cl cotransporter NKCC1 on systemic blood pressure and smooth muscle tone. Am J Physiol Heart Circ Physiol 292: H2100-H2105, 2007). Cell extracts were prepared in a modified radioimmunoprecipitation assay 1 (RIPA) buffer, containing the following (in mM): 50 Tris·HCl at pH 7.4, 150 NaCl, 1 EDTA, and 1 dithiothreitol with 1% Nonidet P-40, 0.1% SDS; in a 1:200-diluted protease inhibitor cocktail (Sigma), containing the following (in mM): 1 PMSF, 10 NEM, and 0.1 iodoacetamide Immunoprecipitations were accomplished using a rabbit polyclonal anti-NKCC1 antibody (Cell Signaling). Antibody was bound to lysate with endogenous NKCC1, and then beads were added. Bound proteins were eluted in 1× SDS sample buffer, fractionated on an SDS-polyacrylamide gel, transferred onto a […] membrane (GE Healthcare, Piscataway, N.J.), and immunoblotted with anti-ubiquitin antibody visualized using enhanced chemiluminescence detection reagents (Pears, Shelton Conn.) according to the manufacturer's instructions.
Immunoblotting with anti-ubiquitin antibody was performed as described above.
ALD decreases the endogenous ubiquitination of NKCC1 and inhibition of SGK1 activation blocks this downregulation. […]

[3] = test system: CBA mice; details: ALD-treated aging CBA mice (Halonen et al. 2014); cited from earlier work
[4] = test system: CBA/CaJ mice; assay: Auditory brainstem response (ABR) thresholds in aging CBA/CaJ mice; type: in vivo, mouse
Description: After 60 (2 months) or 120 days (4 months) of ALD implantation, mice were anesthetized with a combination of ketamine and xylazine (100 μl i.p. of sterile saline containing 100 mg/ml ketamine and […]) for ABR measurements.
Auditory brainstem responses (ABRs) were measured again at 2 and 4 months after treatment started
Auditory brainstem responses were obtained as follows. The mice were anesthetized with a mixture of ketamine/xylazine (120 and 10 mg/kg body weight, respectively, intraperitoneal injection) prior to all experimental sessions. All recording sessions were completed in a soundproof acoustic chamber (IAC) with body temperature maintained with a heating pad. ABRs were measured using Biosig (TDT, Alachua, Fla.) data-acquisition system which recorded responses to 5 ms tone pips ([…] rise-fall times) with a cos^2 onset envelope, presented at rate of 29/sec. Wave I threshold was defined as the lowest intensity which elicited a clearly replicable response. ABRs were measured pre-treatment and post-treatment at 2 and 4 mon. The pre-treatment ABR threshold was used as the baseline to calculate the thresholds shifts. The wave I peak-to-peak amplitudes were analyzed. Data was compared using GraphPad Prism 5.0 (GraphPad Software, Inc. La Jolla, Calif., USA.
As male mice weigh on average 28.0 g at week 9 and female mice 23.1 g, doses of the anti-inflammatory were designed to bracket a dose of 5 mg/kg/day. A total five groups (n=8, half male and half female) were tested. Treatment continued for 120 days or until the mouse was euthanized. […] Death was confirmed by terminal phlebotomy/exsanguinations and perfusion.
Mice were treated at middle age, as above, using 0.0016 mg/day of D-aldosterone, a combination of 0.0016 mg/day of D-aldosterone and 0.042 mg/day of Aspirin; and a control placebo (saline).

## C[C@]12CCC(=O)C=C1CC[C@@H]1[C@@H]2[C@@H](O)C[C@]2(C=O)[C@@H](C(=O)CO)CC[C@@H]12 [ALD, aldosterone]
[1]
  MCR expression levels, densitometry of immunocytochemistry sections: partially rescued the expression levels seen in the young adult
[2]
  endogenous ubiquitinated NKCC1: significantly reduced
[3]
  auditory temporal processing (prepulse inhibition): provocative increases in auditory temporal processing
[4]; 12, 24, 32, 36 kHz at 2 months and 4 months, 0.0016 mg/day
  ABR frequency response: showed improvement
[4]; 24, 32 and 36 kHz, at 120 days
  ABR thresholds, control vs ALD treated group: significantly elevated in the control, non-treated, group relative to the ALD treated group
[4]; 24 kHz and 36 kHz, 2 and 4 month of treatment, vs placebo, Example 7
  ABR shift / ABR thresholds: reduced ABR shifts
[4]; high sound levels, relative to the control group
  ABR peak 1 amplitude: increased significantly at high sound levels
[4]; slow-release subcutaneous pellets, doses 0.00048 to 0.00476 mg/day, 60 or 120 days, relative to age-matched control mice
  dose optimal for ABR threshold improvements: 0.0016 mg/day
